Data from ChEMBL document CHEMBL5154799, “Discovery of a Novel Stilbene Derivative as a Microtubule Targeting Agent Capable of Inducing Cell Ferroptosis” (J Med Chem, 2022).
Active and inactive are the calls of the source. No cut-off for these calls is given here.

Columns and labels:
[1] = Toxicity in human A549 cells xenografted in athymic nude BALB/c nude mouse assessed as morphological changes in spleen at 10 mg/kg, ip measured after 30 days by H and E staining based histological analysis; assay type: organism-based; conditions: in vivo, 720 h, time 30 day
HCT-8 [2] = assay: Antiproliferative activity against human HCT-8 cells assessed as cell viability incubated for 48 hrs by MTT assay; assay type: functional, cell-based; conditions: HCT-8, 48 h
MCF7 [3] = assay: Antiproliferative activity against human MCF7 cells assessed as cell viability incubated for 48 hrs by MTT assay; assay type: functional, cell-based; conditions: MCF7, 48 h
HeLa = assay: Antiproliferative activity against human HeLa cells assessed as inhibition of cell proliferation incubated for 2 hrs by CCK-8 assay; assay type: functional, cell-based; conditions: DDE = dose-dependent effect
A2780 [4] = assay: Antiproliferative activity against human A2780 cells assessed as inhibition of cell proliferation incubated for 2 hrs by CCK-8 assay; assay type: functional, cell-based; conditions: DDE = dose-dependent effect
HCT-8 [5] = assay: Antiproliferative activity against human HCT-8 cells assessed as inhibition of cell proliferation incubated for 2 hrs by CCK-8 assay; assay type: functional, cell-based; conditions: DDE = dose-dependent effect
MCF7 [6] = assay: Antiproliferative activity against human MCF7 cells assessed as inhibition of cell proliferation incubated for 2 hrs by CCK-8 assay; assay type: functional, cell-based; conditions: DDE = dose-dependent effect
[7] = Cytotoxicity against HUVEC cells assessed as reduction in cell viability; assay type: toxicity, cell-based; conditions: human
[8] = Cytotoxicity against HLF cells assessed as reduction in cell viability; assay type: toxicity, cell-based; conditions: human
[9] = Selectivity ratio of IC50 for cytotoxicity against human L02 cells assessed as reduction in cell viability to IC50 for cytotoxicity against human A549 cells assessed as reduction in cell viability; assay type: toxicity, cell-based; conditions: L02 cells versus A549 cells
[10] = Selectivity ratio of IC50 for cytotoxicity against HLF cells assessed as reduction in cell viability to IC50 for cytotoxicity against human A549 cells assessed as reduction in cell viability; assay type: toxicity, cell-based; conditions: HLF cells versus A549 cells
A549 [11] = assay: Antiproliferative activity against human adriamycin-resistant A549/ADR cells assessed as cell viability incubated for 48 hrs by MTT assay; assay type: functional, cell-based; conditions: A549, 48 h
A549 [12] = assay: Resistance index, ratio of IC50 for antiproliferative activity against human adriamycin-resistant A549/ADR cells to IC50 for antiproliferative activity against human A549 cells; assay type: functional
A2780 [13] = assay: Antiproliferative activity against human paclitaxel-resistant A2780/TAX cells assessed as cell viability incubated for 48 hrs by MTT assay; assay type: functional, cell-based; conditions: A2780, 48 h
[14] = Resistance index, ratio of IC50 for antiproliferative activity against human paclitaxel-resistant A2780/TAX cells to IC50 for antiproliferative activity against human A2780 cells; assay type: functional
Tubulin [15] = assay: Inhibition of tubulin polymerization (unknown origin) assessed as fluorescence intensity emission at 410 nm for 60 mins; assay type: protein-complex assay, Homo sapiens
Tubulin (Homo sapiens) [16] = biological target: T1, Tubulin (Homo sapiens) (UniProt P68371+Q9H4B7+P0DPH7+P68366+Q13509+Q71U36+P04350+Q3ZCM7+P07437+P68363+Q9BQE3+Q6PEY2+Q13885+Q9BVA1+Q9BUF5); assay: Inhibition of [3H]colchicine binding to tubulin (unknown origin) at 1.25 uM by competitive binding assay relative to control; assay type: protein-complex assay
Tubulin (Homo sapiens) [17] = biological target: T1, Tubulin (Homo sapiens); assay: Inhibition of [3H]colchicine binding to tubulin (unknown origin) at 5 uM by competitive binding assay relative to control; assay type: protein-complex assay
Tubulin [18] = assay: Inhibition of [3H]colchicine binding to tubulin (unknown origin) by competitive binding assay; assay type: protein-complex assay, Homo sapiens
HUVEC = assay: Vascular disruptive effect in HUVEC cells assessed as reduction in tube formation at 10 nM measured after 6 to 9 hrs; assay type: functional, cell-based; conditions: Homo sapiens, time 6-9 hrs
A549 [19] = assay: Induction of apoptosis in human A549 cells assessed as early apoptotic cells at 200 nM after 24 hrs by annexin V-FITC/PI staining based flow cytometry analysis relative to control; assay type: functional
A549 [20] = assay: Induction of ferroptosis in human A549 cells assessed as rupture of plasma membrane incubated for 24 hrs by CCK-8 assay; assay type: functional, cell-based
A549 [21] = assay: Induction of ferroptosis in human A549 cells assessed as induction of lipid […] accumulation at 5 to 20 nM incubated for 24 hrs by C11-BODIPY-581/591 staining based flow cytometry analysis; assay type: functional, cell-based; conditions: dose 5-20 nM
A549 [22] = assay: Induction of ferroptosis in human A549 cells assessed as depletion of GSH levels at 10 nM upto 12 hrs; assay type: functional, cell-based
[23] = Acute oral toxicity in rat assessed as survival at 17.5 to 175 mg/kg measured over 8 hours daily for 14 days; assay type: organism-based; conditions: in vivo, 336 h, dose 17.5-175 mg/kg, time 14 day
[24] = Cmax in ICR mouse at 10 mg/kg, po single administration measured for 24 hrs post treatment by LC-MS/MS analysis; assay type: ADME, organism-based; design: time 24 hrs, dose 10 mg/kg, route po; conditions: in vivo
[25] = AUC (0 to infinity) in ICR mouse at 10 mg/kg, po single administration measured for 24 hrs post treatment by LC-MS/MS analysis; assay type: ADME, organism-based; design: time 24 hrs, dose 10 mg/kg, route po; conditions: in vivo
[26] = Oral bioavailability in ICR mouse at 10 mg/kg single administration measured for 24 hrs post treatment by LC-MS/MS analysis; assay type: ADME, organism-based; conditions: in vivo
[27] = Cmax in ICR mouse at 1 mg/kg, iv single administration measured for 24 hrs post treatment by LC-MS/MS analysis; assay type: ADME, organism-based; design: time 24 hrs, dose 1 mg/kg, route iv; conditions: in vivo
[28] = AUC (0 to t) in ICR mouse at 1 mg/kg, iv single administration measured for 24 hrs post treatment by LC-MS/MS analysis; assay type: ADME, organism-based; conditions: in vivo
[29] = AUC (0 to infinity) in ICR mouse at 1 mg/kg, iv single administration measured for 24 hrs post treatment by LC-MS/MS analysis; assay type: ADME, organism-based; design: time 24 hrs, dose 1 mg/kg, route iv; conditions: in vivo
[30] = MRT in ICR mouse at 1 mg/kg, iv single administration measured for 24 hrs post treatment by LC-MS/MS analysis; assay type: ADME, organism-based; conditions: in vivo
A549 [31] = assay: In vivo antitumor activity against human A549 cells xenografted in athymic nude BALB/c mouse assessed as tumor weight at 10 mg/kg measured after 30 days (reference value: 1 gram); assay type: functional; conditions: time 30 day
A549 [32] = assay: In vivo antitumor activity against human A549 cells xenografted in athymic nude BALB/c mouse assessed as tumor volume at 10 mg/kg measured after 30 days (reference value: 1503.3 mm^3); assay type: functional; conditions: time 30 day
A549 [33] = assay: In vivo antitumor activity against human A549 cells xenografted in athymic nude BALB/c mouse assessed as tumor growth inhibition at 10 mg/kg measured after 30 days relative to control; assay type: functional; conditions: A549, 720 h, time 30 day, read-out: TGI
[34] = Toxicity in athymic nude BALB/c mouse assessed as body weight loss at 10 mg/kg, ip measured for 30 days; assay type: organism-based; conditions: in vivo, 720 h, time 30 day
[35] = Toxicity in human A549 cells xenografted in athymic nude BALB/c nude mouse assessed as morphological changes in heart at 10 mg/kg, ip measured after 30 days by H and E staining based histological analysis; assay type: organism-based; conditions: in vivo, 720 h, time 30 day
Tubulin (Homo sapiens) [36] = biological target: T1, Tubulin (Homo sapiens); assay: Induction of microtubule disruption in human A549 cells assessed as abnormal chromosomes at 5 to 20 uM incubated for 12 hrs by immunofluorescence based laser scanning confocal microscopic analysis; assay type: cell-based; conditions: dose 5-20 µM
Tubulin (Homo sapiens) [37] = biological target: T1, Tubulin (Homo sapiens); assay: Inhibition of tubulin polymerization (unknown origin) by microplate reader analysis; assay type: protein-complex assay; conditions: dose 5-0.16 µM, DDE = dose-dependent effect

## C=C(c1cc(OC)c(OC)c(OC)c1)c1ccc(OC)c(O)c1NC(=O)CO
[1]
  Activity: Non-Toxic
HCT-8 [2]
  IC50: 40 nM
MCF7 [3]
  IC50: 50 nM
HeLa
  Activity: Dde
A2780 [4]
  Activity: Dde
HCT-8 [5]
  Activity: Dde
MCF7 [6]
  Activity: Dde
[7]
  IC50: 40 nM
[8]
  IC50: 1320 nM
[9]
  selectivity ratio: 145
[10]
  selectivity ratio: 135
A549 [11]
  IC50: 20 nM
A549 [12]
  Ratio IC50: 2
A2780 [13]
  IC50: 40 nM
[14]
  Ratio IC50: 2
Tubulin [15]
  IC50: 580 nM
Tubulin (Homo sapiens) [16]
  inhibition: 48.4%
Tubulin (Homo sapiens) [17]
  inhibition: 78.5%
Tubulin [18]
  IC50: 1130 nM
HUVEC
  Activity: Active
A549 [19]
  Activity: 50.36%
A549 [20]
  Activity: Active
A549 [21]
  Activity: Active
A549 [22]
  Activity: Active
[23]
  Activity: Non-Toxic
[24]
  Cmax: 776 ng/mL
[25]
  AUC: 2463.76 h/ng/mL
[26]
  bioavailability: 69.5%
[27]
  Cmax: 871 ng/mL
[28]
  AUCt: 350.19 h/ng/mL
[29]
  AUC: 353.02 h/ng/mL
[30]
  MRT: 40.8 min
A549 [31]
  Activity: 0.2 g
A549 [32]
  Activity: 321.1 mm3
A549 [33]
  inhibition in vivo at 10 mg/kg: 78.6%
[34]
  Activity: Non-Toxic
[35]
  Activity: Non-Toxic
Tubulin (Homo sapiens) [36]
  Activity: Active
Tubulin (Homo sapiens) [37]
  inhibition: Dde
